Measured values as given in PubChem BioAssay AID330 (DTP/NCI, 2004).
Values joined by “and” are separate entries in the source; they are usually repeats but may differ in a detail not shown here. Identical values can stand only once. Toxic doses and inconclusive results are not listed. Rule for the calls: active = survival T/C of 150% or more; inactive = T/C below 125% in these data.

Test system: P388 leukemia ip, CD2F1 mice, survival T/C
Assay: NCI In Vivo Anticancer Drug Screen. Data for tumor model P388 Leukemia (intraperitoneal) in CD2F1 (CDF1) mice
Details: endpoint: median survival time, higher = longer survival
In short: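 Mice carrying the transplanted tumor received test compound or vehicle. Survival was recorded in each group, and the value is the treated-group measurement divided by that of the vehicle-treated control group.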

[1] = dose: 50.0 mg/kg/injection, schedule: Q01DX009 (ip), vehicle: saline with Tween-80
[2] = dose: 100.0 mg/kg/injection, schedule: Q01DX009 (ip), vehicle: saline with Tween-80
[3] = dose: 50.0 mg/kg/injection, schedule: Q01DX005 (ip), vehicle: Klucel (hydroxypropylcellulose) (HPC)
[4] = dose: 100.0 mg/kg/injection, schedule: Q01DX005 (ip), vehicle: Klucel (hydroxypropylcellulose) (HPC)
[5] = dose: 6.25 mg/kg/injection, schedule: Q01DX009 (ip), vehicle: Klucel (hydroxypropylcellulose) (HPC)
[6] = dose: 12.5 mg/kg/injection, schedule: Q01DX009 (ip), vehicle: Klucel (hydroxypropylcellulose) (HPC)
[7] = dose: 50.0 mg/kg/injection, schedule: Q01DX005 (ip), vehicle: saline with Tween-80
[8] = dose: 100.0 mg/kg/injection, schedule: Q01DX005 (ip), vehicle: saline with Tween-80
[9] = dose: 200.0 mg/kg/injection, schedule: Q01DX005 (ip), vehicle: saline with Tween-80
[10] = dose: 10.0 mg/kg/injection, schedule: Q01DX009 (ip), vehicle: saline with Tween-80

Measured: T/C

CC1=C(C#N)C(C)(CCl)C(C#N)=C(C)N1C
inactive: dose: 25.0 mg/kg/injection, schedule: Q01DX009 (ip), vehicle: other 96 % of control | dose: 50.0 mg/kg/injection, schedule: Q01DX009 (ip), vehicle: other 115 % of control | dose: 100.0 mg/kg/injection, schedule: Q01DX009 (ip), vehicle: other 103 % of control

CCOC(=O)C(C(=O)OCC)[N+](=O)[O-]
inactive: [1] 100 % of control | [2] 93 % of control

COC(=O)/C(=C1/OC(=O)C(c2ccc(Cl)cc2)=C1O)c1ccc(OC)cc1
inactive: [3] 102 % of control | [4] 94 % of control

Clc1ccc(S/N=C/c2ccccc2)cc1
inactive: [1] 113 % of control | [2] 114 % of control

CC1(C)Oc2ccccc2O1
inactive: dose: 12.5 mg/kg/injection, schedule: Q01DX009 (ip), vehicle: saline with Tween-80 96 % of control | dose: 25.0 mg/kg/injection, schedule: Q01DX009 (ip), vehicle: saline with Tween-80 108 % of control | [1] 107 % of control | [2] 113 % of control

COc1ccc(CSC(=S)Nc2cc(C)c(C)cc2Br)cc1
inactive: dose: 50.0 mg/kg/injection, schedule: Q01DX009 (ip), vehicle: suspension in saline 100 % of control | dose: 100.0 mg/kg/injection, schedule: Q01DX009 (ip), vehicle: suspension in saline 97 % of control | dose: 200.0 mg/kg/injection, schedule: Q01DX009 (ip), vehicle: suspension in saline 93 % of control

N#CC(O)COc1nsnc1N1CCOCC1 (stereo not given)
inactive: [5] 108 % of control | [6] 106 % of control | dose: 25.0 mg/kg/injection, schedule: Q01DX009 (ip), vehicle: Klucel (hydroxypropylcellulose) (HPC) 105 % of control

O=C(NCCCCCCCCNC(=O)C12CC3CC(CC(C3)C1)C2)C12CC3CC(CC(C3)C1)C2
inactive: [7] 86 % of control | [8] 86 % of control | [9] 96 % of control

CC(=C\c1ccc(Cl)c(Cl)c1)/C(C)=N/NC(N)=Nc1ccc(C)cc1
inactive: dose: 25.0 mg/kg/injection, schedule: Q04DX002 (ip), vehicle: saline with Tween-80 103 % of control | dose: 50.0 mg/kg/injection, schedule: Q04DX002 (ip), vehicle: saline with Tween-80 111 % of control

CCc1c(COC(=O)NC)c(COC(=O)NC)cc2c1[nH]c1ccccc12
inactive: [7] 88 % of control | [8] 88 % of control | [9] 89 % of control

O=C(c1ccc2cc(Cl)c(Cl)cc2c1)C(Cl)Cl
inactive: dose: 1.56 mg/kg/injection, schedule: Q01DX009 (ip), vehicle: Klucel (hydroxypropylcellulose) (HPC) 116 % of control | dose: 3.12 mg/kg/injection, schedule: Q01DX009 (ip), vehicle: Klucel (hydroxypropylcellulose) (HPC) 104 % of control | [5] 101 % of control and 97 % of control | [6] 88 % of control

C=CCC(CC)(C(=O)Nc1ccc2nc(C)cc(N)c2c1)C(=O)Nc1ccc2nc(C)cc(N)c2c1
inactive: dose: 6.25 mg/kg/injection, schedule: Q01DX005 (ip), vehicle: saline with Tween-80 94 % of control | dose: 12.5 mg/kg/injection, schedule: Q01DX005 (ip), vehicle: saline with Tween-80 89 % of control | [8] 87 % of control | [9] 96 % of control

CC(/C=N/Nc1ccccc1)=N\N=c1/scc(-c2ccc(Cl)cc2)n1-c1ccc(Cl)cc1
inactive: [7] 86 % of control | [8] 92 % of control | [9] 94 % of control

FC(F)(F)C1(C(F)(F)F)CC2COc3ccccc3C2=N1 (stereo not given)
inactive: dose: 50.0 mg/kg/injection, schedule: Q04DX002 (ip), vehicle: suspension in saline 100 % of control | dose: 100.0 mg/kg/injection, schedule: Q04DX002 (ip), vehicle: suspension in saline 99 % of control | dose: 200.0 mg/kg/injection, schedule: Q04DX002 (ip), vehicle: suspension in saline 100 % of control

CC(C)N(B1NCC(C)N1C(C)C)C(C)C (stereo not given)
inactive: dose: 100.0 mg/kg/injection, schedule: Q01DX001 (ip), vehicle: saline 101 % of control | dose: 200.0 mg/kg/injection, schedule: Q01DX001 (ip), vehicle: saline 102 % of control | dose: 400.0 mg/kg/injection, schedule: Q01DX001 (ip), vehicle: saline 100 % of control

COC(=O)NN(C(=O)OC)C12CCCC1N(C(=O)OC)N(C(=O)OC)c1c2ccc2ccccc12 (stereo not given)
inactive: dose: 60.0 mg/kg/injection, schedule: Q01DX005 (ip), vehicle: Klucel (hydroxypropylcellulose) (HPC) 103 % of control | dose: 120.0 mg/kg/injection, schedule: Q01DX005 (ip), vehicle: Klucel (hydroxypropylcellulose) (HPC) 103 % of control | dose: 240.0 mg/kg/injection, schedule: Q01DX005 (ip), vehicle: Klucel (hydroxypropylcellulose) (HPC) 96 % of control

O=C1C=C(Cl)C(=O)C2=C1CCCC2
inactive: dose: 6.25 mg/kg/injection, schedule: Q04DX002 (ip), vehicle: saline with Tween-80 97 % of control

O=C1OC(=O)C2C3C=CC(O3)C12 (stereo not given)
inactive: dose: 15.0 mg/kg/injection, schedule: Q01DX005 (ip), vehicle: saline 100 % of control | dose: 30.0 mg/kg/injection, schedule: Q01DX005 (ip), vehicle: saline 91 % of control | dose: 60.0 mg/kg/injection, schedule: Q01DX005 (ip), vehicle: saline 87 % of control and 89 % of control

CC1=CC(Cc2ccccc2)N(C)CC1C (stereo not given)
inactive: dose: 60.0 mg/kg/injection, schedule: Q01DX005 (ip), vehicle: saline with Tween-80 97 % of control | dose: 120.0 mg/kg/injection, schedule: Q01DX005 (ip), vehicle: saline with Tween-80 91 % of control

COc1cc(NC(C)=O)c(OC)c2c(Cl)ccnc12
inactive: dose: 100.0 mg/kg/injection, schedule: Q01DX001 (ip), vehicle: acid diluted with saline 101 % of control | dose: 200.0 mg/kg/injection, schedule: Q01DX001 (ip), vehicle: acid diluted with saline 99 % of control

CCOC(=O)C(Cc1c[nH]c2ccccc12)NCc1ccc(N(CCCl)CCCl)cc1 (stereo not given)
inactive: [10] 94 % of control | dose: 20.0 mg/kg/injection, schedule: Q01DX009 (ip), vehicle: saline with Tween-80 110 % of control | dose: 40.0 mg/kg/injection, schedule: Q01DX009 (ip), vehicle: saline with Tween-80 110 % of control | [1] 97 % of control | dose: 80.0 mg/kg/injection, schedule: Q01DX009 (ip), vehicle: saline with Tween-80 123 % of control | [2] 106 % of control

CCOC(=O)C(Cc1c[nH]c2ccccc12)NCCNc1ccccc1 (stereo not given)
inactive: dose: 50.0 mg/kg/injection, schedule: Q01DX009 (ip), vehicle: saline 91 % of control | dose: 100.0 mg/kg/injection, schedule: Q01DX009 (ip), vehicle: saline 91 % of control | dose: 200.0 mg/kg/injection, schedule: Q01DX009 (ip), vehicle: saline 99 % of control

O=C1C=C2OCOC2=C/C1=C/C=C/c1ccccc1
inactive: dose: 2.5 mg/kg/injection, schedule: Q01DX009 (ip), vehicle: saline with Tween-80 102 % of control | dose: 5.0 mg/kg/injection, schedule: Q01DX009 (ip), vehicle: saline with Tween-80 101 % of control | [10] 103 % of control

COC(=O)c1c(C(=O)OC)c2c(C)nn3ccc1n23
inactive: dose: 25.0 mg/kg/injection, schedule: Q01DX005 (ip), vehicle: saline with Tween-80 96 % of control | [7] 96 % of control | [8] 98 % of control | [9] 93 % of control

Cc1cc(C)c2c(c1)CC(C)(C)CC2(O)C1CCCCN1 (stereo not given)
inactive: [3] 100 % of control | [4] 108 % of control

O=C1C(=O)c2ccccc2C(O)=C1CC=C(Cl)Cl
inactive: dose: 6.2 mg/kg/injection, schedule: Q01DX009 (ip), vehicle: water 120 % of control | dose: 12.5 mg/kg/injection, schedule: Q01DX009 (ip), vehicle: water 120 % of control | dose: 25.0 mg/kg/injection, schedule: Q01DX009 (ip), vehicle: water 110 % of control | dose: 25.0 mg/kg/injection, schedule: Q01DX009 (oral), vehicle: water 105 % of control | dose: 50.0 mg/kg/injection, schedule: Q01DX009 (ip), vehicle: water 120 % of control | dose: 50.0 mg/kg/injection, schedule: Q01DX009 (oral), vehicle: water 120 % of control | dose: 100.0 mg/kg/injection, schedule: Q01DX009 (oral), vehicle: water 120 % of control

BrC1CC2(OCCO2)C(Br)CC12OCCO2 (stereo not given)
inactive: dose: 25.0 mg/kg/injection, schedule: Q04DX003 (ip), vehicle: saline 99 % of control | dose: 50.0 mg/kg/injection, schedule: Q04DX003 (ip), vehicle: saline 100 % of control | dose: 100.0 mg/kg/injection, schedule: Q04DX003 (ip), vehicle: saline 118 % of control | dose: 200.0 mg/kg/injection, schedule: Q04DX003 (ip), vehicle: saline 103 % of control | dose: 400.0 mg/kg/injection, schedule: Q04DX003 (ip), vehicle: saline 103 % of control
